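Five compound concentrations were applied to cells in 96-well plates for 48 hours; endpoints were derived by simple linear interpolation of the resulting dose-response curve. GI50 is the concentration that inhibits growth by half.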 Activity calls are given as the source filed them. Rule as the data show it: active = GI50 up to about 1.1 µM and inactive = higher.
Columns and labels:
Experiment in all cases: inhibition of tumour cell growth, NCI panel, 48 h
786-0 = test system: 786-0
A498 = test system: A498
A549 = test system: A549
ACHN = test system: ACHN
BT-549 = test system: BT-549
CAKI-1 = test system: CAKI-1
COLO 205 = test system: COLO 205
DU-145 = test system: DU-145
EKVX = test system: EKVX
HCT-116 = test system: HCT-116
HCT-15 = test system: HCT-15
HOP-62 = test system: HOP-62
HOP-92 = test system: HOP-92
HT-29 = test system: HT-29
Hs-578T = test system: Hs-578T
IGROV-1 = test system: IGROV-1
K562 = test system: K562
KM12 = test system: KM12
LOX IMVI = test system: LOX IMVI
M14 = test system: M14
MCF7 = test system: MCF7
MDA-MB-231 = test system: MDA-MB-231
MDA-MB-435 = test system: MDA-MB-435
MDA-N = test system: MDA-N
MOLT-4 = test system: MOLT-4
Malme-3M = test system: Malme-3M
NCI-H226 = test system: NCI-H226
NCI-H23 = test system: NCI-H23
NCI-H460 = test system: NCI-H460
NCI-H522 = test system: NCI-H522
NCI/ADR-RES = test system: NCI/ADR-RES
OVCAR-3 = test system: OVCAR-3
OVCAR-4 = test system: OVCAR-4
OVCAR-5 = test system: OVCAR-5
OVCAR-8 = test system: OVCAR-8
PC-3 = test system: PC-3
RPMI-8226 = test system: RPMI-8226
RXF 393 = test system: RXF 393
SF-268 = test system: SF-268
SF-295 = test system: SF-295
SF-539 = test system: SF-539
SK-MEL-28 = test system: SK-MEL-28
SK-MEL-2 = test system: SK-MEL-2
SK-MEL-5 = test system: SK-MEL-5
SK-OV-3 = test system: SK-OV-3
SN12C = test system: SN12C
SNB-19 = test system: SNB-19
SNB-75 = test system: SNB-75
SR = test system: SR
SW-620 = test system: SW-620
T47D = test system: T47D
TK-10 = test system: TK-10
U-251 = test system: U-251
UACC-257 = test system: UACC-257
UACC-62 = test system: UACC-62
UO-31 = test system: UO-31
CCRF-CEM = test system: CCRF-CEM
HCC 2998 = test system: HCC 2998
HL-60 = test system: HL-60

Measured: GI50

C[C@]12CCC3=NCCN3C1=CC[C@@H]1[C@@H]2CC[C@@]2(C)[C@H]1CC[C@]2(C)O
53.2 µM: HCT-15
inactive: 786-0 14.6 µM | A498 26.9 µM | A549 > 100 µM | ACHN > 100 µM | BT-549 44 µM | CAKI-1 > 100 µM | COLO 205 25.8 µM | DU-145 > 100 µM | EKVX 96.4 µM | HCT-116 31 µM | HOP-62 84.9 µM | HOP-92 37.2 µM | HT-29 16.1 µM | Hs-578T 30.5 µM | IGROV-1 39.1 µM | K562 34.7 µM | KM12 82.6 µM | LOX IMVI 32.2 µM | M14 89.1 µM | MCF7 61.9 µM | MDA-MB-231 > 100 µM | MDA-MB-435 84.9 µM | MDA-N 61.9 µM | MOLT-4 35.3 µM | Malme-3M 24.5 µM | NCI-H226 39.5 µM | NCI-H23 59.6 µM | NCI-H460 38.3 µM | NCI-H522 58.1 µM | NCI/ADR-RES > 100 µM | OVCAR-3 > 100 µM | OVCAR-4 > 100 µM | OVCAR-5 > 100 µM | OVCAR-8 45.9 µM | PC-3 62.5 µM | RPMI-8226 15 µM | RXF 393 23 µM | SF-268 76.7 µM | SF-295 20.7 µM | SF-539 22.2 µM | SK-MEL-28 28.8 µM | SK-MEL-2 50 µM | SK-MEL-5 17.6 µM | SK-OV-3 > 100 µM | SN12C > 100 µM | SNB-19 > 100 µM | SNB-75 40.7 µM | SR 38.8 µM | SW-620 85.1 µM | T47D 87.1 µM | TK-10 41.1 µM | U-251 87.3 µM | UACC-257 24.4 µM | UACC-62 29.3 µM | UO-31 68.1 µM

Cc1nc(-c2cc3ccccc3oc2=O)cs1
active: SNB-75 < 0.01 µM
inactive: 786-0 34 µM | A549 > 100 µM | ACHN 52.5 µM | BT-549 15.9 µM | CAKI-1 > 100 µM | CCRF-CEM > 100 µM | COLO 205 > 100 µM | DU-145 > 100 µM | EKVX 34.2 µM | HCC 2998 > 100 µM | HCT-116 96.2 µM | HL-60 > 100 µM | HOP-62 16.6 µM | HOP-92 19 µM | HT-29 > 100 µM | Hs-578T 18.4 µM | IGROV-1 17.1 µM | K562 > 100 µM | KM12 > 100 µM | LOX IMVI > 100 µM | M14 > 100 µM | MCF7 > 100 µM | MDA-MB-231 25.1 µM | MDA-MB-435 > 100 µM | MDA-N > 100 µM | MOLT-4 > 100 µM | Malme-3M 7.23 µM | NCI-H226 30.3 µM | NCI-H460 > 100 µM | NCI-H522 17 µM | NCI/ADR-RES 78.5 µM | OVCAR-4 > 100 µM | OVCAR-5 > 100 µM | OVCAR-8 47 µM | PC-3 > 100 µM | RPMI-8226 > 100 µM | RXF 393 38.2 µM | SF-268 42.9 µM | SF-295 35.5 µM | SF-539 70 µM | SK-MEL-28 > 100 µM | SK-MEL-2 85.3 µM | SK-MEL-5 > 100 µM | SK-OV-3 > 100 µM | SN12C > 100 µM | SNB-19 40.6 µM | SR 59 µM | SW-620 > 100 µM | T47D > 100 µM | TK-10 37.4 µM | U-251 32 µM | UACC-257 > 100 µM | UACC-62 31.3 µM | UO-31 > 100 µM
> 100 µM: HCT-15

O=C1OC(C2Cc3ccccc3C2=O)c2ccccc21 (stereo not given)
> 100 µM: HCT-15
inactive: 786-0 > 100 µM | A549 > 100 µM | ACHN > 100 µM | BT-549 > 100 µM | CAKI-1 > 100 µM | CCRF-CEM > 100 µM | COLO 205 > 100 µM | DU-145 > 100 µM | EKVX > 100 µM | HCC 2998 > 100 µM | HCT-116 > 100 µM | HL-60 > 100 µM | HOP-62 > 100 µM | HOP-92 > 100 µM | HT-29 26.1 µM | Hs-578T > 100 µM | IGROV-1 > 100 µM | K562 > 100 µM | KM12 > 100 µM | LOX IMVI 99.1 µM | M14 > 100 µM | MCF7 > 100 µM | MDA-MB-231 > 100 µM | MDA-MB-435 > 100 µM | MDA-N > 100 µM | MOLT-4 > 100 µM | Malme-3M > 100 µM | NCI-H226 > 100 µM | NCI-H23 > 100 µM | NCI-H460 > 100 µM | NCI-H522 > 100 µM | NCI/ADR-RES > 100 µM | OVCAR-3 > 100 µM | OVCAR-4 > 100 µM | OVCAR-5 > 100 µM | OVCAR-8 > 100 µM | PC-3 > 100 µM | RPMI-8226 > 100 µM | RXF 393 > 100 µM | SF-268 > 100 µM | SF-295 > 100 µM | SF-539 > 100 µM | SK-MEL-28 > 100 µM | SK-MEL-2 > 100 µM | SK-MEL-5 > 100 µM | SK-OV-3 > 100 µM | SN12C > 100 µM | SNB-19 > 100 µM | SNB-75 > 100 µM | SR > 100 µM | SW-620 > 100 µM | T47D > 100 µM | TK-10 > 100 µM | U-251 > 100 µM | UACC-257 > 100 µM | UACC-62 > 100 µM | UO-31 > 100 µM

O=C1NCC2(CCN(Cc3ccccc3)CC2)N1
inactive: 786-0 > 100 µM | A549 > 100 µM | ACHN > 100 µM | BT-549 > 100 µM | CAKI-1 > 100 µM | CCRF-CEM > 100 µM | COLO 205 > 100 µM | DU-145 > 100 µM | EKVX > 100 µM | HCC 2998 > 100 µM | HCT-116 > 100 µM | HL-60 > 100 µM | HOP-62 > 100 µM | HOP-92 > 100 µM | HT-29 > 100 µM | Hs-578T > 100 µM | IGROV-1 > 100 µM | K562 > 100 µM | KM12 > 100 µM | LOX IMVI > 100 µM | M14 > 100 µM | MCF7 > 100 µM | MDA-MB-231 > 100 µM | MDA-MB-435 > 100 µM | MDA-N > 100 µM | MOLT-4 > 100 µM | Malme-3M > 100 µM | NCI-H226 > 100 µM | NCI-H23 > 100 µM | NCI-H460 > 100 µM | NCI-H522 > 100 µM | NCI/ADR-RES > 100 µM | OVCAR-3 > 100 µM | OVCAR-4 > 100 µM | OVCAR-5 > 100 µM | OVCAR-8 > 100 µM | PC-3 > 100 µM | RPMI-8226 > 100 µM | RXF 393 > 100 µM | SF-268 > 100 µM | SF-295 > 100 µM | SF-539 > 100 µM | SK-MEL-28 > 100 µM | SK-MEL-2 > 100 µM | SK-MEL-5 > 100 µM | SK-OV-3 > 100 µM | SN12C > 100 µM | SNB-19 > 100 µM | SNB-75 > 100 µM | SR > 100 µM | SW-620 > 100 µM | T47D > 100 µM | TK-10 > 100 µM | U-251 > 100 µM | UACC-257 > 100 µM | UACC-62 > 100 µM | UO-31 > 100 µM
> 100 µM: HCT-15

Nc1ccc2[nH]c(C(=O)N3CC(CCl)c4c3cc(N)c3ccccc43)cc2c1 (stereo not given)
< 0.01 µM: HCT-15
active: 786-0 < 0.01 µM | A498 < 0.01 µM | A549 < 0.01 µM | ACHN < 0.01 µM | BT-549 < 0.016 µM | CAKI-1 < 0.01 µM | CCRF-CEM < 0.01 µM | COLO 205 0.0101 µM | DU-145 < 0.01 µM | EKVX < 0.01 µM | HCC 2998 < 0.01 µM | HCT-116 < 0.01 µM | HL-60 < 0.01 µM | HOP-62 < 0.01 µM | HOP-92 0.0115 µM | HT-29 < 0.01 µM | Hs-578T 0.0204 µM | IGROV-1 < 0.01 µM | K562 < 0.01 µM | KM12 0.0114 µM | LOX IMVI < 0.01 µM | M14 0.0107 µM | MCF7 < 0.01 µM | MDA-MB-231 < 0.0208 µM | MDA-MB-435 0.011 µM | MDA-N < 0.01 µM | MOLT-4 < 0.01 µM | NCI-H226 0.0105 µM | NCI-H23 < 0.01 µM | NCI-H460 < 0.01 µM | NCI/ADR-RES < 0.01 µM | OVCAR-3 0.0166 µM | OVCAR-4 < 0.01 µM | OVCAR-5 < 0.01 µM | OVCAR-8 < 0.01 µM | PC-3 < 0.01 µM | RPMI-8226 < 0.0108 µM | RXF 393 < 0.01 µM | SF-268 < 0.01 µM | SF-295 < 0.01 µM | SF-539 < 0.01 µM | SK-MEL-28 0.013 µM | SK-MEL-2 < 0.01 µM | SK-MEL-5 < 0.01 µM | SK-OV-3 0.0175 µM | SN12C < 0.01 µM | SNB-19 < 0.0138 µM | SNB-75 < 0.01 µM | SR < 0.01 µM | SW-620 < 0.01 µM | T47D 0.0119 µM | TK-10 < 0.01 µM | U-251 < 0.01 µM | UACC-257 0.0142 µM | UACC-62 < 0.01 µM | UO-31 0.0114 µM
